Source: patent US20230220047A1, “PEPTIDES FOR TREATMENT OF SEPSIS AND CANCER” (NORWEGIAN UNIVERSITY OF SCIENCE AND TECHNOLOGY (NTNU), priority 2020, published 2023)

Key:
[1] = test system: INA-6 multiple myeloma cells; assay: CellTiter-Glo cell viability assay, INA-6; type: cell-based, human; settings: INA-6, 12.5 μM, 48 h
Method: Minor effects on the proliferation of the IH-1 and RPMI 8226 cell lines are seen. Cells were seeded at the level shown (left-hand bar of each set) then incubated in medium containing water, 10 μM penetratin or 10 μM P7-A4-Pen for 48 hr (except for INA-6 cells, which were incubated with 12.5 μM penetratin or 12.5 μM P7-A4-Pen). The number of viable cells was detected based on quantitation of ATP by luminescent signal in correlation to a standard curve prepared for each cell line. Results are based on 3-5 biological replicates for each condition, error bars show standard deviation of mean.
Multiple myeloma cells JJN-3 (DSMZ (Germany) no. ACC 541), ANBL-6 (Cellosaurus accession number CVCL_5425, obtained from Dr Diane Jelinek, Mayo Clinic, Rochester, Minn.), INA-6 (Cellosaurus accession number CVCL_5209, obtained from Dr M. Gramatzki, University of Erlangen-Nurnberg, Erlangen, Germany), RPMI-8226 (ATCC CCL-155), and IH-1 (Cellosaurus accession number CVCL_WZ44, established from the pleural effusion of a myeloma patient by Myeloma research group, IKOM, NTNU, Trondheim, Norway) were grown in RPMI-1640 (Sigma-Aldrich Norway, Oslo, Norway) supplemented with 100 nM penicillin/streptomycin and 10% FCS, and for ANBL-6, IH-1 and INA-6 cells 2 ng/ml recombinant IL-6 (Gibco, Thermo Fisher Scientific, Waltham, Mass., USA). […]

THP-1 cells [2] = assay: Viability of acute myeloid leukaemia cell line THP-1; type: cell-based, human; settings: 5-30 μM, 48 h
Method: THP-1 cells were seeded in medium at 10,000 cells/well, as indicated by the dotted line. Cells were incubated for 48 hours in medium supplemented with water, C3A-Pen, P7-Pen, P7-A4-Pen or P7-N4-Pen. The peptides were included at concentrations ranging from 5-30 μM. At 48 hours cells were counted. […] The results with other peptides were less clear-cut. Results are based on 3 biological replicates, error bars show standard deviation of mean.
The peptides were tested against the SW480 cell line in the presence and absence of LPS.

TLR8 = assay: qPCR of CL075-induced TLR8-mediated cytokine expression in primary human monocytes; type: cell-based; settings: 15 μM, CL075 1 μg/ml
Method: Cells were pre-treated with 15 μM peptides for 30 min, followed by addition of LPS (100 ng/ml) (A) or CL075 (1 μg/ml) (B) for 2 or 4 h. Each dot on the graphs corresponds to the average value for one donor, the lines show the mean values for all donors, and error bars indicate the SD.
Total RNA was isolated from the cells using Qiazol reagent #79306 from QIAGEN, and chloroform extraction followed by purification on RNeasy Mini columns with DNAse digestion (Qiagen). cDNA was prepared using the Maxima First Strand cDNA Synthesis Kit for quantitative real-time polymerase chain reaction (RT-qPCR) (Thermo Fisher Scientific) according to the manufacturer's protocol. qPCR was performed using the PerfeCTa qPCR FastMix (Quanta Biosciences) in replicates and cycled in a StepOnePlus™ Real-Time PCR cycler. The following TaqMan® Gene Expression Assays (Applied Biosystems®) were used: IFNβ (Hs01077958_s1), TNF (Hs00174128_m1), TBP (Hs00427620_m1), CXCL10 (Hs01124251_g1), IL-6 (Hs00174131_m1) and IL-1β (Hs01555410_m1), for human cells; Ifnβ (Mm00439552_s1), Tnf (Mm00443258_m1), Tbp (Mm01277042_m1) and II-1β (Mm00434228_m1), for mouse cells. […] Relative expression was calculated using Pfaffl's mathematical model (Pfaffl, Nucleic Acids Research 29(9): e45, 2001). […] Statistical significance was evaluated in GraphPad Prizm 5.03. […] The difference between the two groups was determined by two-tailed t test. […]

TLR2 = assay: Primary human macrophages stimulated with FSL-1: cytokine mRNA, Western blot, IRAK precipitations; type: cell-based; settings: primary human macrophages (data not shown)
Method: Primary human macrophages (PBMC derived, differentiated in media with 10% human serum and M-CSF 20 ng/ml, 7 days) were stimulated with K12 LPS (100 ng/ml), FSL-1 (100 ng/ml) or CL075 (3 μg/ml). […] (B) qPCR for mRNA expression of IFNβ, IL-6, TNF and IL-1β, average for three biological replicates, error bars ±SD.
Primary human macrophages (7 days) were pre-treated with Pen or P7-Pen (15 μM) for 30 min before addition of LPS (100 ng/ml), FSL-1 (100 ng/ml) or CL075 (3 μg/ml). A: Protein expression in lysates for input control. B,C: Precipitations were performed using sheep anti-IRAK4 (B) or anti-IRAK1 (C) polyclonal antibodies covalently bound to magnetic beads.
The effect of P7-Pen on TLR2-mediated pro-inflammatory cytokine expression was investigated.

THP-1 cells [3] = assay: LDH cytotoxicity assay in THP-1 cells; settings: 1 h pre-treatment
Method: For every assay, separate wells were seeded for the required controls (Spontaneous LDH Release Controls and Maximum LDH Release Control) with the same amount of cells as used for peptide treatments. All supernatants were analysed in triplicate with the average value of technical replicates taken into calculations.
THP-1 cells were pre-treated with increasing concentrations of P7-Arg11 and control peptide Arg11 for 1 h (FIG. 3).

Ac-ITVAASVTLTGRQIKIWFQNRRMKWKK-NH2 [Peptide P7-A4-Pen]
cell proliferation [1]: strongly inhibited cell proliferation
effect on THP-1 cell number (THP-1 cells [2]): anti-proliferative effect

Ac-ITVYASVTLTGRQIKIWFQNRRMKWKK-NH2 [Peptide P7-Pen]
CL075-induced TLR8-mediated IFNβ mRNA expression (TLR8): inhibited
expression of proinflammatory cytokines (TLR8): no significant effect
expression of pro-inflammatory cytokines induced by TLR2/6 agonist FSL-1 (TLR2): no effect

Ac-ITVYASVTLTGRRRRRRRRRRR-NH2 [Peptide P7-Arg11]
toxicity (LDH assay) (THP-1 cells [3]; 5 μM and 10 μM): essentially non-toxic
toxicity (LDH assay) (THP-1 cells [3]; 20 μM): increased toxicity
